According to publication PMC7356696, “Synthesis, Antimicrobial Activity and Molecular Docking of Novel Thiourea Derivatives Tagged with Thiadiazole, Imidazole and Triazine Moieties as Potential DNA Gyrase and Topoisomerase IV Inhibitors” (Molecules, 2020):
Values after ≈ are worked out from the molar mass of the structure shown. Read-outs that look alike come from different tables or passages of the source.

Assays:
Format in all cases: cell-based
[1] = test system: Bacillus subtilis ATCC 6633; test: Agar well diffusion, inhibition zone; set-up: dose or concentration left out as unconfirmed; conditions: ATCC6633, B. subtilis ATCC 6633, NA = No Activity, read-out: Mean Diameter of Inhibition Zone (Mean ± SEM)
From the text: (§1) The antimicrobial activity of all synthesized compounds 2–13 was screened against a panel of two Gram-positive bacteria (Staphylococcus aureus ATCC 29213 and Bacillus subtilis ATCC 6633), two Gram-negative bacteria (Escherichia coli ATCC 25922, Pseudomonas aeruginosa ATCC 27853) and two fungi (Candida albicans ATCC 10231 and Aspergillus flavus ATCC 46283) using the agar well diffusion method. Ciprofloxacin and clotrimazole were used as antibacterial and antifungal standards, respectively. The results of this study were recorded as the average diameter of the inhibition zones (IZ) in Table 1. […] Additionally, the promising activity against S. aureus was observed from compounds 9, 12 and 13, however against B. subtilis from compounds 12 and 13.
(§2) The antimicrobial assay was performed in vitro for the target compounds 2–13 against Staphylococcus aureus ATCC 29213, Bacillus subtilis ATCC 6633 as Gram-positive bacteria, Escherichia coli ATCC 25922, Pseudomonas aeruginosa ATCC 27853 as Gram-negative bacteria and Candida albicans ATCC 10231, Aspergillus flavus ATCC 46283 as fungi. At the first, 100 μL of the test bacteria/fungi were grown in 10 mL of fresh media until they reached a count of approximately 10^8 cells/ml for bacteria or 10^5 cells/mL for fungi. […] The plates were incubated for 24 h at 37 °C (for bacteria and yeast) and for 72 h at 27 °C (for filamentous fungi), each test was repeated three times. After incubation, the microorganism’s growth was observed. Ciprofloxacin and clotrimazole were used as standard antibacterial and antifungal drugs, respectively. The resulting inhibition zone diameters were measured in millimeters using the diffusion technique. […] The different concentrations (triplicate) of each compound were tested and compared with standard drugs.

[2] = test system: Staphylococcus aureus ATCC 29213; test: Agar well diffusion, inhibition zone; set-up: dose or concentration left out as unconfirmed; conditions: ATCC29213, S. aureus ATCC 29213, NA = No Activity, read-out: Mean Diameter of Inhibition Zone (Mean ± SEM)
From the text: as §1, §2

[3] = test system: Escherichia coli ATCC 25922; test: Agar well diffusion, inhibition zone; set-up: dose or concentration left out as unconfirmed; conditions: ATCC25922, E. coli ATCC 25922, NA = No Activity, read-out: Mean Diameter of Inhibition Zone (Mean ± SEM)
From the text: as §1
(§3) The antimicrobial assay was performed in vitro for the target compounds 2–13 against Staphylococcus aureus ATCC 29213, Bacillus subtilis ATCC 6633 as Gram-positive bacteria, Escherichia coli ATCC 25922, Pseudomonas aeruginosa ATCC 27853 as Gram-negative bacteria and Candida albicans ATCC 10231, Aspergillus flavus ATCC 46283 as fungi. At the first, 100 μL of the test bacteria/fungi were grown in 10 mL of fresh media until they reached a count of approximately 10^8 cells/ml for bacteria or 10^5 cells/mL for fungi. […] of each sample (at 0.5 mg/mL) was added to each well (10 mm diameter holes cut in the agar gel). The plates were incubated for 24 h at 37 °C (for bacteria and yeast) and for 72 h at 27 °C (for filamentous fungi), each test was repeated three times. After incubation, the microorganism’s growth was observed. Ciprofloxacin and clotrimazole were used as standard antibacterial and antifungal drugs, respectively. The resulting inhibition zone diameters were measured in millimeters using the diffusion technique. […] The different concentrations (triplicate) of each compound were tested and compared with standard drugs.

[4] = test system: Pseudomonas aeruginosa ATCC 27853; test: Agar well diffusion, inhibition zone; set-up: dose or concentration left out as unconfirmed; conditions: ATCC27853, P. aeruginosa ATCC 27853, NA = No Activity, read-out: Mean Diameter of Inhibition Zone (Mean ± SEM)
From the text: as §1, §3

[5] = test system: Bacillus subtilis ATCC 6633; test: MIC, modified agar well diffusion method; conditions: ATCC6633, B. subtilis ATCC 6633, read-out: MIC (Mean ± SEM)
From the text: as §1, §3

[6] = test system: Escherichia coli ATCC 25922; test: MIC, modified agar well diffusion method; conditions: ATCC25922, E. coli ATCC 25922, read-out: MIC (Mean ± SEM)
From the text: as §1, §3

[7] = test system: Pseudomonas aeruginosa ATCC 27853; test: MIC, modified agar well diffusion method; conditions: ATCC27853, P. aeruginosa ATCC 27853, read-out: MIC (Mean ± SEM)
From the text: as §1, §3

[8] = test system: Staphylococcus aureus ATCC 29213; test: MIC, modified agar well diffusion method; conditions: ATCC29213, S. aureus ATCC 29213, read-out: MIC (Mean ± SEM)
From the text: as §1, §3

[9] = test system: Aspergillus flavus ATCC 46283; test: Agar well diffusion, inhibition zone; set-up: dose or concentration left out as unconfirmed; conditions: ATCC46283, A. flavus ATCC 46283, NA = No Activity, read-out: Mean Diameter of Inhibition Zone (Mean ± SEM)
From the text: as §1, §3

[10] = test system: Candida albicans ATCC 10231; test: Agar well diffusion, inhibition zone; set-up: dose or concentration left out as unconfirmed; conditions: ATCC10231, C. albicans ATCC 10231, NA = No Activity, read-out: Mean Diameter of Inhibition Zone (Mean ± SEM)
From the text: as §1, §3

[11] = test system: Aspergillus flavus ATCC 46283; test: MIC, modified agar well diffusion method; conditions: ATCC46283, A. flavus ATCC 46283, read-out: MIC (Mean ± SEM)
From the text: as §1, §3

[12] = test system: Candida albicans ATCC 10231; test: MIC, modified agar well diffusion method; conditions: ATCC10231, C. albicans ATCC 10231, read-out: MIC (Mean ± SEM)
From the text: as §1, §3

[13] = MTT assay for cytotoxic activity; conditions: African green monkey, Vero cells (normal kidney epithelial cell line), read-out: IC50 (Mean ± SEM), cytotoxic activity
From the text: (§4) The results are expressed as IC50 values (µM) and are depicted in Table 3.

[14] = test system: human breast cancer (MCF-7) cells; test: MTT assay for cytotoxic activity; conditions: read-out: IC50 (Mean ± SEM), cytotoxic activity
From the text: as §4

[15] = Homo sapiens, MCF7, MCF-7 cells

Compound	zone of inhibition [1]	zone of inhibition [2]	zone of inhibition [3]	zone of inhibition [4]	MIC [5]	MIC [6]	MIC [7]	MIC [8]	zone of inhibition [9]	zone of inhibition [10]	MIC [11]	MIC [12]	IC50 [13]	IC50 [14, 15]	IC50 ([14]; MCF-7 cells)
O=C(O)c1cn(C2CC2)c2cc(N3CCNCC3)c(F)cc2c1=O [Ciprofloxacin, reference compound]	23 ± 0.2 mm	24 ± 0.6 mm	26 ± 0.25 mm	23 ± 0.9 mm	2.9 ± 0.02 µg/mL (≈ 8.75 µM)	2.9 ± 0.25 µg/mL (≈ 8.75 µM)	2.9 ± 0.04 µg/mL (≈ 8.75 µM)	5.85 ± 0.13 µg/mL (≈ 17.7 µM)	–	–	–	–	–	–	–
Clc1ccccc1C(c1ccccc1)(c1ccccc1)n1ccnc1 [Clotrimazole, reference compound]	–	–	–	–	–	–	–	–	25 ± 0.4 mm	27 ± 0.21 mm	4.25 ± 0.05 µg/mL (≈ 12.3 µM)	12.5 ± 0.15 µg/mL (≈ 36.2 µM)	–	–	–
CCOC(=O)CNC(=S)NC(=O)Cc1ccccc1 [Compound 2, Ethyl ((2-phenylacetyl)carbonothionyl)glycinate]	–	9 ± 0.61 mm	–	–	–	–	–	–	–	–	–	–	–	–	–
O=C(Cc1ccccc1)NC(=S)NN1C(=O)C(=Cc2ccccc2)N=C1c1ccccc1 [Compound 6, 1-(4-Benzylidene-4,5-dihydro-5-oxo-2-phenylimidazol-1-yl)-3-(2-phenylacetyl)thiourea]	30 ± 0.26 mm	27 ± 0.2 mm	12 ± 0.1 mm	21 ± 0.26 mm	2.29 ± 0.05 µg/mL (≈ 5.2 µM)	7.8 ± 0.1 µg/mL (≈ 17.7 µM)	2.48 ± 0.11 µg/mL (≈ 5.63 µM)	5.12 ± 0.05 µg/mL (≈ 11.6 µM)	9 ± 0.03 mm	6 ± 0.22 mm	26.2 ± 0.03 µg/mL (≈ 59.5 µM)	91 ± 0.02 µg/mL (≈ 207 µM)	122.8 ± 0.4 µM	23.7 ± 0.96 µM	–
O=C(Cc1ccccc1)NC(=S)NNC(=O)C(=Cc1ccccc1)NC(=O)c1ccccc1 [Compound 7a, 1-(2-Benzamido-3-phenylacryloyl)-4-phenylacetylthiosemicarbazide]	33 ± 0.5 mm	30 ± 0.22 mm	18 ± 0.22 mm	27 ± 0.03 mm	1.39 ± 0.5 µg/mL (≈ 3.03 µM)	4.22 ± 0.12 µg/mL (≈ 9.2 µM)	2.81 ± 0.01 µg/mL (≈ 6.13 µM)	4.15 ± 0.22 µg/mL (≈ 9.05 µM)	24 ± 0.02 mm	15 ± 0.3 mm	5.21 ± 0.11 µg/mL (≈ 11.4 µM)	64 ± 0.41 µg/mL (≈ 140 µM)	149.1 ± 0.21 µM	10.2 ± 0.65 µM	–
O=C(Cc1ccccc1)NC(=S)NNC(=O)C(=Cc1cccs1)NC(=O)c1ccccc1 [Compound 7b, 1-(2-Benzamido-3-(thiophen-2-yl)acryloyl)-4-phenylacetylthiosemicarbazide]	35 ± 0.26 mm	33 ± 0.01 mm	18 ± 0.41 mm	26 ± 0.21 mm	1.46 ± 0.1 µg/mL (≈ 3.14 µM)	4.68 ± 0.13 µg/mL (≈ 10.1 µM)	2.72 ± 0.15 µg/mL (≈ 5.85 µM)	3.9 ± 0.26 µg/mL (≈ 8.39 µM)	25 ± 0.15 mm	16 ± 0.12 mm	5.7 ± 0.01 µg/mL (≈ 12.3 µM)	76 ± 0.31 µg/mL (≈ 164 µM)	133.3 ± 0.4 µM	11.6 ± 0.59 µM	11.6 ± 0.59 µM
O=c1cc2nc(Cc3ccccc3)[nH]c(=S)n2[nH]1 [Compound 9, 2-Benzyl-3,4-dihydro-4-thioxopyrazolo[1,5-a][1,3,5]triazin-7(6H)-one]	18 ± 0.25 mm	21 ± 0.3 mm	–	9 ± 0.25 mm	8.6 ± 0.25 µg/mL (≈ 33.3 µM)	–	17.6 ± 0.2 µg/mL (≈ 68.2 µM)	9.92 ± 0.3 µg/mL (≈ 38.4 µM)	15 ± 0.33 mm	9 ± 0.2 mm	20.4 ± 0.3 µg/mL (≈ 79.2 µM)	94 ± 0.1 µg/mL (≈ 364 µM)	62.45 ± 0.2 µM	26.4 ± 0.46 µM	–
N#CCc1nnc(NC(=O)Cc2ccccc2)s1 [Compound 10, N-(5-(Cyanomethyl)-1,3,4-thiadiazol-2-yl)-2-phenylacetamide]	12 ± 0.21 mm	15 ± 0.42 mm	–	6 ± 0.02 mm	–	–	–	–	6 ± 0.41 mm	–	–	–	–	–	–
N=c1oc2ccccc2cc1-c1nnc(NC(=O)Cc2ccccc2)s1 [Compound 11, N-(5-(2-Imino-2H-chromen-3-yl)-1,3,4-thiadiazol-2-yl)-2-phenylacetamide]	6 ± 0.53 mm	12 ± 0.3 mm	–	–	–	–	–	–	–	–	–	–	–	–	–
O=C(Cc1ccccc1)NC(=S)N1NC(=O)C(=Cc2ccccc2)N=C1c1ccccc1 [Compound 12, 5-Benzylidene-5,6-dihydro-N-(1-hydroxy-2-phenylethylidene)-6-oxo-3-phenyl-1,2,4-triazine-2(1H)-carbothioamide]	23 ± 0.01 mm	22 ± 0.05 mm	5 ± 0.58 mm	17 ± 0.2 mm	2.3 ± 0.05 µg/mL (≈ 5.22 µM)	27 ± 0.02 µg/mL (≈ 61.3 µM)	12.5 ± 0.2 µg/mL (≈ 28.4 µM)	5.22 ± 0.03 µg/mL (≈ 11.8 µM)	18 ± 0.03 mm	14 ± 0.21 mm	15.6 ± 0.01 µg/mL (≈ 35.4 µM)	85 ± 0.15 µg/mL (≈ 193 µM)	79.19 ± 0.28 µM	35.9 ± 0.85 µM	–
O=C(Cc1ccccc1)Nc1nnc(C(=Cc2cccs2)NC(=O)c2ccccc2)s1 [Compound 13, N-(1-(5-(2-Phenylacetamido)-1,3,4-thiadiazol-2-yl)-2-(thiophen-2-yl)vinyl)benzamide]	24 ± 1.11 mm	21 ± 0.1 mm	6 ± 0.15 mm	15 ± 0.11 mm	2.72 ± 1.11 µg/mL (≈ 6.09 µM)	33 µg/mL (≈ 73.9 µM)	13.41 ± 0.1 µg/mL (≈ 30 µM)	5.6 ± 0.15 µg/mL (≈ 12.5 µM)	18 ± 0.22 mm	12 ± 0.46 mm	14.6 ± 0.2 µg/mL (≈ 32.6 µM)	83 ± 0.22 µg/mL (≈ 186 µM)	84.11 ± 0.32 µM	37.7 ± 0.93 µM	–
